This is an account of results in PubChem BioAssay AID1250 (SRMLSC, 2008).

Molecules are shown by their SMILES. The source made the active and inactive calls.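 The calls were made as follows: active = inhibition of at least 30% at one or more tested concentrations; inactive = inhibition below 30% at every dose.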

The nature of this assay: antiviral protection against BTV-induced cell death – arbovirus, BSR cells, confirmation (AID 1250). As to conditions: BSR cells, Bluetongue virus CPE, ATP luminescence, 72 h.

In the case of `CSc1ccccc1NC(=O)CO/N=C(\C)c1cc2ccccc2o1`, the CPE inhibition (at 20 µM (top of the series)) is 12.9% (inactive).
Regarding `Cn1cc(CN2CCN(c3ccccc3)CC2)c2ccccc21`, for the setting “at 20 µM (top of the series)”, the CPE inhibition was 12% (inactive).
For `COC(=O)c1ccc(NC(=O)c2ccccc2NS(C)(=O)=O)cc1`, the CPE inhibition (at 20 µM (top of the series)) was 22.4% (inactive).
Turning to `COc1ccc(CN(C(=O)CSc2nnc(-c3ccc(F)cc3)o2)c2ccc(F)cc2)cc1`, the CPE inhibition (at 20 µM (top of the series)) was 21.3% (inactive).
Still for that read-out and setting: then `CN1CCc2nc3sc(C#N)c(N)c3c(-c3cccs3)c2C1`, with 10.1% (inactive); and `O=C(O)c1cc(N/N=C2/CC(c3ccccc3)Oc3ccccc32)ccc1Cl` (configuration not stated), with 16.6% (inactive).
For the molecule `Cc1ccccc1N=C1SCC(=O)N1Cc1ccccc1`, the CPE inhibition (at 20 µM (top of the series)) is 3.79% (inactive).
Same read-out and setting: in the case of `COc1cccc(C2=CC(c3ccc(N(C)C)cc3)n3ncnc3N2)c1` (configuration not stated) it was 8.59% (inactive).
Still for that read-out and setting: then `CCOC(=O)c1c(-c2ccc(C)cc2)csc1NC(=O)C1CC=CCC1C(=O)O` (configuration not stated), with 18.1% (inactive).
Same read-out and setting: in the case of `CC(C)(C)C1CCc2c(sc(NC(=O)C3CC=CCC3C(=O)O)c2C#N)C1` (configuration not stated) it was 26.8% (inactive); in that of `CC1=NN2C(=N)/C(=C\c3ccc(SCc4ccccc4)o3)C(=O)N=C2S1`, 21.1% (inactive); in that of `CC1CC1C(=O)Nc1nc(-c2ccc(Cl)s2)cs1` (configuration not stated), 12% (inactive).
For the molecule `CC1=NN(c2nc(-c3ccc(Cl)cc3)cs2)C(=O)C1`, the CPE inhibition (at 20 µM (top of the series)) is 8.37% (inactive).
As to `O=C(Nn1c(SCc2cccc([N+](=O)[O-])c2)nc2ccccc2c1=O)c1ccccc1`, the CPE inhibition (at 20 µM (top of the series)) is 29.8% (inactive).
The same measure, in the same setting: then `COc1ccc(Br)cc1CN(C)CC(=O)Nc1c(Cl)cccc1Cl`, with 28.5% (inactive).
The same measure, in the same setting: then `O=C(N/N=C/c1c(O)n(CCc2ccccc2)c(=O)[nH]c1=O)c1ccncc1`, with 7.83% (inactive); and `O=c1oc(-c2cccs2)nc2sc3c(c12)CCCC3`, with 21.2% (inactive); and `CCc1nnc(NC(=O)c2cc3ccccc3oc2=O)s1`, with -0.17% (inactive).
Same read-out and setting: then `COc1cc(C2N=C(c3ccccc3)NO2)cc(Br)c1O` (configuration not stated), with 18.4% (inactive); and `O=C(Nc1ccc(OC(F)(F)F)cc1)c1[nH]ncc1[N+](=O)[O-]`, with 25.3% (inactive).
With `COc1ccc(F)cc1C(=O)C1CCCN(C(=O)CSc2ccccn2)C1` (configuration not stated), the CPE inhibition (at 20 µM (top of the series)) is 17.6% (inactive).
Same read-out and setting: in the case of `O=C(Nc1ccccc1C(=O)O)c1cccc(NC(=O)c2ccc(Br)o2)c1` it was 7.57% (inactive); in that of `FC(F)(F)c1ccc(Oc2ccc3ccccc3c2Br)nc1`, 1.17% (inactive); in that of `O=C(CN1CCCCCC1)N/N=C/c1cccs1`, -0.49% (inactive).
For the molecule `CN(c1ccccc1)c1ccc(/C=C(\CCC(=O)O)c2nc3ccccc3s2)cc1[N+](=O)[O-]`, the CPE inhibition (at 20 µM (top of the series)) is 21.4% (inactive).
`O=C(Nc1c(-c2ccccc2)nc2ccccn12)c1cccs1`: the CPE inhibition (at 20 µM (top of the series)) is 20.6% (inactive).
Still for that read-out and setting: in the case of `COc1ccc(/C=C/c2nc(-c3ccccc3O)n[nH]2)cc1OC` it was 14% (inactive).
`COc1ccc(C(=O)/C=C/c2ccc(OC)c(Cn3nnc4ccccc43)c2)cc1`: under “at 20 µM (top of the series)”, the CPE inhibition is 15.8% (inactive).
As to `C=CCN(C(=O)c1cccc(N2C(=O)C3CC=CC(C)C3C2=O)c1)c1ccccc1` (configuration not stated), the CPE inhibition (at 20 µM (top of the series)) was 8.5% (inactive).
Consider `N#Cc1c2n(c3c(=S)nc[nH]c13)CCCCC2`, for which the CPE inhibition (at 20 µM (top of the series)) was 9.66% (inactive).
Still for that read-out and setting: then `N#Cc1c(NC(=O)C2CC(Cl)=CCC2C(=O)O)sc2c1CCCCC2` (configuration not stated), with 17.1% (inactive).
As for `O=c1oc(/C=C/c2ccco2)nc2sc3c(c12)CCC3`, the CPE inhibition (at 20 µM (top of the series)) is 21.9% (inactive).
Regarding `CN1CCN(C(=S)NC(=O)c2ccc(Cl)cc2)CC1`, the CPE inhibition (at 20 µM (top of the series)) is 29.2% (inactive).
Still for that read-out and setting: then `O=c1[nH]n2c(=O)c3c([nH]c2c1N=Nc1cccc(Cl)c1)CCC3`, with 16.8% (inactive); and `CC(C)c1cc(C(F)(F)F)n2nc(C(=O)Nc3ccc4c(c3)OCO4)cc2n1`, with 9.64% (inactive).
In the case of `Cc1csc(NC(=O)CN2C(=O)C3CC=CCC3C2=O)n1` (configuration not stated), the CPE inhibition (at 20 µM (top of the series)) was 1.87% (inactive).
`O=C(Nc1cccc(Cl)c1)Nc1ccnc(-c2cccnc2)n1`: where the note is “at 5 µM (top of the series)”, the CPE inhibition is 23.9% (inactive).
Turning to `CCOC(=O)c1sc(NC(=S)NC(=O)c2cccc(Cl)c2)c(C(=O)OCC)c1C`, the CPE inhibition (at 20 µM (top of the series)) was 1.04% (inactive).
For the molecule `O=C(O)CCn1cc(/C=C/C(=O)c2ccc(Cl)cc2)c(-c2ccc(Br)cc2)n1`, the CPE inhibition (at 20 µM (top of the series)) was 13.8% (inactive).
For the molecule `CCOC(=O)CSc1nc2c(sc(=S)n2-c2ccc(OCC)cc2)c(=O)[nH]1`, the CPE inhibition (at 20 µM (top of the series)) is 19.1% (inactive).
With `CSc1nsc2nc(=O)c(/C=C3\C=Nc4ccccc43)c(N)n12`, the CPE inhibition (at 20 µM (top of the series)) was 20.5% (inactive).
Consider `CCOc1ccc(S(=O)(=O)N2CCN(c3ccccc3OC)CC2)c2cccnc12`, for which the CPE inhibition (at 20 µM (top of the series)) was 17.1% (inactive).
